Experimental data taken from the supplement of paper PMC12350171.

Tests used:
[1] = test system: Com21 synthetic gut community; test: community biomass OD578 after 24 h drug treatment relative to untreated (fraction of untreated control); higher = more community growth; settings: community: Com21 (Com20 + E. coli ED1a)
Method: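 Com21 (Com20 plus E. coli ED1a) was treated with drug for 24 h under anaerobic conditions in mGAM. Community OD578 was then measured and normalised to untreated Com21; mean of 3 biological replicates.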

[2] = test system: Streptococcus parasanguinis; test: IC25 growth inhibition; higher = less potent
Outline: (§1)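 Overnight monocultures grown in mGAM were moved into pre-reduced plates containing twofold drug dilutions, at a starting OD578 of 0.01 with 1% DMSO (or water). Plates were kept anaerobic and read hourly at OD578 in a plate reader, with at least three biological replicates. For each concentration, the median area under the growth curve was made monotonic, and IC25 was the lowest concentration whose median fell below a cutoff, reported as a tested interval. That cutoff was 0.75.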

Roseburia intestinalis = test: IC25 growth inhibition; higher = less potent
Outline: as §1

[3] = test system: Clostridium saccharolyticum; test: IC25 growth inhibition; higher = less potent
Outline: as §1

Bacteroides fragilis NT = test: IC25 growth inhibition; higher = less potent
Outline: as §1

Dorea formicigenerans = test: IC25 growth inhibition; higher = less potent
Outline: as §1

[4] = test system: Salmonella enterica typhimurium; test: IC25 growth inhibition; higher = less potent
Outline: as §1

Eubacterium rectale = test: IC25 growth inhibition; higher = less potent
Outline: as §1

Ruminococcus gnavus = test: IC25 growth inhibition; higher = less potent
Outline: as §1

Coprococcus comes = test: IC25 growth inhibition; higher = less potent
Outline: as §1

Shigella flexneri = test: IC25 growth inhibition; higher = less potent
Outline: as §1

Vibrio cholerae = test: IC25 growth inhibition; higher = less potent
Outline: as §1

Escherichia coli ED1a = test: IC25 growth inhibition; higher = less potent
Outline: as §1

Bacteroides uniformis = test: IC25 growth inhibition; higher = less potent
Outline: as §1

[5] = test system: Yersinia pseudotuberculosis; test: IC25 growth inhibition; higher = less potent
Outline: as §1

Bacteroides vulgatus = test: IC25 growth inhibition; higher = less potent
Outline: as §1

Clostridium perfringens = test: IC25 growth inhibition; higher = less potent
Outline: as §1

Clostridium ramosum = test: IC25 growth inhibition; higher = less potent
Outline: as §1

Clostridium bolteae = test: IC25 growth inhibition; higher = less potent
Outline: as §1

[6] = test system: Yersinia enterocolitica WA-314; test: IC25 growth inhibition; higher = less potent
Outline: as §1

Parabacteroides merdae = test: IC25 growth inhibition; higher = less potent
Outline: as §1

Collinsella aerofaciens = test: IC25 growth inhibition; higher = less potent
Outline: as §1

[7] = test system: Bacteroides thetaiotaomicron; test: IC25 growth inhibition; higher = less potent
Outline: as §1

[8] = test system: Fusobacterium nucleatum subsp. Nucleatum; test: IC25 growth inhibition; higher = less potent
Outline: as §1

Streptococcus salivarius = test: IC25 growth inhibition; higher = less potent
Outline: as §1

[9] = drug pretreatment concentration 10 µM
[10] = drug pretreatment concentration 20 µM
[11] = drug pretreatment concentration 40 µM
[12] = drug pretreatment concentration 80 µM
[13] = drug pretreatment concentration 160 µM
[14] = drug pretreatment concentration 5 µM
[15] = drug pretreatment concentration 2.5 µM
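Wherever IC25 growth inhibition is given: lowest concentration where monotonic median growth AUC falls below 0.75 of drug-free control.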

SMILES	community biomass OD578 [1, 9]	community biomass OD578 [1, 10]	community biomass OD578 [1, 11]	community biomass OD578 [1, 12]	community biomass OD578 [1, 13]	IC25 growth inhibition [2] [µM]	IC25 growth inhibition (Roseburia intestinalis) [µM]	IC25 growth inhibition [3] [µM]	IC25 growth inhibition (Bacteroides fragilis NT) [µM]	IC25 growth inhibition (Dorea formicigenerans) [µM]	IC25 growth inhibition [4] [µM]	IC25 growth inhibition (Eubacterium rectale) [µM]	IC25 growth inhibition (Ruminococcus gnavus) [µM]	IC25 growth inhibition (Coprococcus comes) [µM]	IC25 growth inhibition (Shigella flexneri) [µM]	IC25 growth inhibition (Vibrio cholerae) [µM]	IC25 growth inhibition (Escherichia coli ED1a) [µM]	IC25 growth inhibition (Bacteroides uniformis) [µM]	IC25 growth inhibition [5] [µM]	IC25 growth inhibition (Bacteroides vulgatus) [µM]	IC25 growth inhibition (Clostridium perfringens) [µM]	IC25 growth inhibition (Clostridium ramosum) [µM]	IC25 growth inhibition (Clostridium bolteae) [µM]	IC25 growth inhibition [6] [µM]	IC25 growth inhibition (Parabacteroides merdae) [µM]	IC25 growth inhibition (Collinsella aerofaciens) [µM]	IC25 growth inhibition [7] [µM]	IC25 growth inhibition [8] [µM]	IC25 growth inhibition (Streptococcus salivarius) [µM]	community biomass OD578 [1, 14]	community biomass OD578 [1, 15]
CC[C@H]1OC(=O)[C@H](C)[C@@H](O[C@H]2C[C@@](C)(OC)[C@@H](O)[C@H](C)O2)[C@H](C)[C@@H](O[C@@H]2O[C@H](C)C[C@H](N(C)C)[C@H]2O)[C@](C)(O)C[C@@H](C)C(=O)[C@H](C)[C@@H](O)[C@]1(C)O [Erythromycin]	0.734	0.696	0.608	0.496	0.409	< 1.25	< 1.25	< 1.25	< 1.25	< 1.25	≤ 40	< 1.25	< 1.25	< 1.25	≤ 10	< 1.25	≤ 20	< 1.25	≤ 40	< 1.25	< 1.25	< 1.25	≤ 2.5	≤ 20	< 1.25	< 1.25	< 1.25	≤ 5	< 1.25	–	–
C#C[C@]1(O)CC[C@H]2[C@@H]3CCc4cc(O)ccc4[C@H]3CC[C@@]21C [Ethinylestradiol]	0.986	0.99	0.976	0.779	–	> 80	> 80	> 80	> 80	> 80	> 80	> 80	> 80	> 80	> 80	≤ 40	> 80	> 80	> 80	> 80	> 80	> 80	> 80	> 80	> 80	> 80	> 80	> 80	> 80	1.01	–
CCN(CC)C(C)CN1c2ccccc2Sc2ccccc21 (configuration not stated) [Ethopropazine]	0.981	0.995	0.997	0.992	0.97	> 80	≤ 80	> 80	≤ 10	> 80	> 80	> 80	> 80	> 80	> 80	> 80	> 160	≤ 10	> 80	< 1.25	> 80	> 80	> 80	> 80	< 1.25	> 80	≤ 2.5	> 80	> 80	–	–
O=c1[nH]c(=O)n([C@H]2C[C@H](O)[C@@H](CO)O2)cc1F [Floxuridine]	0.993	0.907	0.886	0.882	0.88	< 1.25	> 160	≤ 160	< 1.25	> 160	≤ 40	> 160	≤ 2.5	> 160	≤ 20	≤ 10	≤ 10	< 1.25	≤ 5	< 1.25	< 1.25	< 1.25	≤ 80	≤ 20	> 160	> 160	< 1.25	≤ 80	< 1.25	–	–
OC(Cn1cncn1)(Cn1cncn1)c1ccc(F)cc1F [Fluconazole]	0.936	1.02	0.993	0.99	1.04	> 160	> 160	> 160	> 160	> 160	> 160	≤ 40	> 160	> 160	> 160	> 160	> 160	> 160	> 160	> 160	> 160	> 160	> 160	> 160	> 160	≤ 160	> 160	> 160	> 160	–	–
CC(=O)N1CCN(c2ccc(OCC3COC(Cn4ccnc4)(c4ccc(Cl)cc4Cl)O3)cc2)CC1 (configuration not stated) [Ketoconazole]	0.941	0.979	0.953	0.928	0.731	> 80	≤ 80	≤ 80	≤ 80	≤ 40	> 160	≤ 40	≤ 80	≤ 40	> 80	> 160	> 160	≤ 40	> 160	≤ 40	≤ 80	> 160	> 160	> 80	≤ 40	≤ 80	≤ 80	≤ 160	≤ 80	–	–
N[C@@H](Cc1cc(I)c(Oc2cc(I)c(O)c(I)c2)c(I)c1)C(=O)O [L-Thyroxin]	1.01	1.03	1.02	–	–	> 160	> 160	> 160	> 160	≤ 80	> 160	> 160	> 160	> 160	> 160	> 160	> 40	> 160	> 160	> 160	> 160	> 160	> 160	> 160	> 160	> 160	> 160	> 160	> 160	0.999	0.996
CCOC(=O)C1=C(C)NC(C)=C(C(=O)OCC)C1c1ccccc1/C=C/C(=O)OC(C)(C)C [Lacidipine]	1.04	1	0.963	–	–	> 20	≤ 20	> 20	> 40	> 40	> 20	> 40	> 40	> 20	> 40	> 40	> 40	> 40	> 20	> 40	≤ 40	> 40	> 20	> 20	> 40	> 20	> 20	> 40	> 40	1.01	1.01
